In patent publication US10981932B2, “Macrocyclic indole derivatives” (Bayer Aktiengesellschaft, priority 2016, dated 2021):
Where “and” joins values, the source holds several entries; their conditions need not be identical. Equal values may be shown once. Where a name gives a salt, the structure may show the parent alone. Read-outs that look alike come from different tables or passages of the source.

What was measured:
MCL-1 = MCL-1 (Homo sapiens, UniProt Q07820); assay: Protein-protein interaction assay MCL-1/Noxa BH3 peptide (MCL-1 assay), TR-FRET; assay type: binding; details: MBP-MCL-1 / Noxa BH3-derived peptide, median
Summary of the method: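 TR-FRET, 665/622 nm emission ratio (excitation 330–350 nm), measured MCL-1/Noxa complex formation. 1 nM MBP-MCL-1, 50 mM Tris/HCl pH 7, 0.1% BGG, 2 mM DTT. Incubation 1 h at 22 °C, then overnight at 4 °C. IC50 by 4-parameter regression, normalized to DMSO (0%) and no-MCL-1 (100%) controls.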

OPM2 = assay: Anti-proliferative effect (CellTiter-Glo, 72 h), OPM2; assay type: cell-based; details: OPM2 cells, median, read-out: IC50 antiproliferation assay OPM2 [M] (median)
Summary of the method: (§1)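 A time zero plate, read with CellTiter-Glo shortly after seeding, served as baseline; compound-treated plates were incubated 72 h at 37 °C and then read identically by luminescence.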

SUDHL5 [1] = assay: Induction of cytotoxicity (CellTiter-Glo, 5 h), SUDHL5
SUDHL10 [2] = assay: Induction of caspase-3/7 activity (Caspase-Glo 3/7), SUDHL10; assay type: cell-based; details: caspase-3/7 induction, SUDHL10 cells, 3 h treatment, median
Summary of the method: (§2)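 DLBCL cells treated with compounds for 3 h at 37 °C, then caspase-3/7 activity read by Caspase-Glo 3/7 luminescence. Medium-only background subtracted; EC50 fitted with C0 fixed at 1 and top set to the reference compound's maximal induction.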

SUDHL5 [3] = assay: Anti-proliferative effect (CellTiter-Glo, 72 h), SUDHL5; assay type: cell-based; details: SUDHL5 cells, antiproliferation, 72 h incubation, median, read-out: Antiproli SUDHL5 [M] (median)
Summary of the method: as §1

SUDHL10 [4] = assay: Anti-proliferative effect (CellTiter-Glo, 72 h), SUDHL10; assay type: cell-based; details: SUDHL10 cells, antiproliferation, 72 h incubation, median, read-out: Antiproli SUDHL10 [M] (median)
Summary of the method: as §1

SUDHL5 [5] = assay: Induction of caspase-3/7 activity (Caspase-Glo 3/7), SUDHL5; assay type: cell-based; details: caspase-3/7 induction, SUDHL5 cells, 3 h treatment, median
Summary of the method: as §2

SUDHL10 [6] = assay: Induction of cytotoxicity (CellTiter-Glo, 5 h), SUDHL10
A2780 = assay: Anti-proliferative effect (CellTiter-Glo, 72 h), A2780; assay type: cell-based; details: A2780 cells, median, read-out: IC50 antiproliferation assay A2780 [M] (median)
Summary of the method: as §1

[7] = read-out: Cytotox SUDHL5 [M] (median), SUDHL5 cells, cytotoxicity induction, CellTiter-Glo, 5 h incubation, median
[8] = read-out: Cytotox SUDHL10 [M] (median), SUDHL10 cells, cytotoxicity induction, CellTiter-Glo, 5 h incubation, median
[9] = Homo sapiens, SU-DHL10, 5 h, read-out: Cytotox SUDHL10 [M] (median), SUDHL10 cells, cytotoxicity induction, CellTiter-Glo, 5 h incubation, median
[10] = Homo sapiens, SU-DHL-5, 5 h, read-out: Cytotox SUDHL5 [M] (median), SUDHL5 cells, cytotoxicity induction, CellTiter-Glo, 5 h incubation, median

Sequence of MCL-1 (Q07820 whole entry): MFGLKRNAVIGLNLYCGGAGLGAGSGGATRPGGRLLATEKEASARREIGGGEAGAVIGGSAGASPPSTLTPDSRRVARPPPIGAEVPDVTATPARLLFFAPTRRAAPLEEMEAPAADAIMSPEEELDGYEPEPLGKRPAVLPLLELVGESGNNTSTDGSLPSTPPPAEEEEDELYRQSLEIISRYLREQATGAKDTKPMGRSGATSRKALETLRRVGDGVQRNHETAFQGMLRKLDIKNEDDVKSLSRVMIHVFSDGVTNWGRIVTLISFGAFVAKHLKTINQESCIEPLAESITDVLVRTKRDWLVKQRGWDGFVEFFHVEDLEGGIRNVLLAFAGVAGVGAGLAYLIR

Compound	IC50 (MCL-1) [µM]	EC50 (SUDHL10 [2]) [µM]	IC50 (SUDHL5 [3]) [M]	IC50 (SUDHL10 [4])	EC50 (SUDHL5 [5]) [µM]	IC50 (A2780) [M]	EC50 (SUDHL10 [2]; Homo sapiens, SU-DHL10, 3 h) [µM]	IC50 (SUDHL10 [4]; Homo sapiens, SU-DHL10, 72 h) [M]	IC50 (SUDHL5 [3]; Homo sapiens, SU-DHL-5, 72 h) [M]	EC50 (SUDHL5 [5]; Homo sapiens, SU-DHL-5, 3 h) [µM]	IC50 (A2780; Homo sapiens, A2780, 72 h) [M]	IC50 (OPM2) [M]	IC50 (SUDHL5 [1]; [7])	IC50 (SUDHL10 [6]; [8]) [M]	IC50 (SUDHL10 [6]; [9]) [M]	IC50 (OPM2; Homo sapiens, OPM-2, 72 h) [M]	IC50 (SUDHL5 [1]; [10]) [M]
CCN(CC)S(=O)(=O)N1CCN(c2ccc(OCc3nn(C)c4c3-c3cccc5c(CCCOc6cccc7ccccc67)c(C(=O)O)n(c35)CCCCOC4)cc2)CC1 (single isomer, unassigned; enantiomer 1) [Example 1-4, 3-({4-[4-(diethylsulfamoyl)piperazin-1-yl]phenoxy}methyl)-1-methyl-7-[3-(naphthalen-1-yloxy)propyl]-1,10,11,12,13,15-hexahydropyrazolo[4′,3′:9,10][1,6]oxazacycloundecino[8,7,6-hi]indole-8-Carboxylic acid (Enantiomer 1)]	0.304		2.43e-06		15.2	2.47e-06	5.18	1.73e-06				3.36e-06	1.83e-05 M		7.42e-06		
Cn1nc(COc2ccc(N3CCOCC3)cc2)c2c1COCCCCn1c(C(=O)O)c(CCCOc3cccc4ccccc34)c3cccc-2c31 (single isomer, unassigned; enantiomer 1) [Example 122, 1-methyl-3-{[4-(morpholin-4-yl)phenoxy]methyl}-7-[3-(naphthalen-1-yloxy)propyl]-1,10,11,12,13,15-hexahydropyrazolo[4′,3′:9,10][1,6]oxazacycloundecino[8,7,6-hi]indole-8-carboxylic Acid (Enantiomer 1)]	0.0577	21.8	1.03e-05		27.5			1.17e-05			7.4e-06		2.92e-05 M		> 3.3e-05	2.79e-06	
CN1CCCn2c(C(=O)O)c(CCCOc3cccc4ccccc34)c3cccc(c32)-c2c(CNCC(F)(F)F)nn(C)c2C1 (single isomer, unassigned; enantiomer 1) [Example 130, 7,9-dimethyl-1-(3-(naphthalen-1-yloxy)propyl-11-{[(2,2,2-trifluoroethyl)amino]methyl}-4,5,6,7,8,9-hexahydropyrazolo[3′,4′:7,8][1,5]diazecino[9,10,1-hi]indole-2-carboxylic acid-N-ethylethanamine Salt (Enantiomer 1)]	0.0331	> 33					24.4	6.42e-06	1.17e-05	18.9	1.11e-05	6e-06		> 3.3e-05	1.71e-05		1.53e-05
COCc1nn(C)c2c1-c1cccc3c(CCCOc4cccc5ccccc45)c(C(=O)O)n(c13)CCCCOC2 (single isomer, unassigned; enantiomer 1) [Example 159, 3-(methoxymethyl)-1-methyl-7-[3-(naphthalen-1-yloxy)propyl]-1,10,11,12,13,15-hexahydropyrazolo[4′,3′:9,01][1,6]oxazacycloundecino[8,7,6-hi]indole-8-carboxylic acid-N-ethylethanamine Salt (Enantiomer 1)]	0.0238	> 33	1.75e-05	2.98e-05 M and > 3.3e-05 M			28.6			13.8	> 3.3e-05			> 3.3e-05	3.05e-05	> 3.3e-05	1.76e-05
CCOCc1nn(C)c2c1-c1cccc3c(CCCOc4cccc5ccccc45)c(C(=O)O)n(c13)CCCCOC2 (single isomer, unassigned; enantiomer 1) [Example 169, 3-(ethoxymethyl)-1-methyl-7-[3-(naphthalen-1-yloxy)propyl]-1,10,11,12,13,15-hexahydropyrazolo[4′3′:9,10][1,6]oxazacycloundecino[8,7,6-hi]indole-8-carboxylic Acid (Enantiomer 1)]	0.0184	> 33	2.68e-05	2.02e-05 M	> 33						2.02e-05		1.74e-05 M and > 3.3e-05 M	> 3.3e-05	2.01e-05	2.04e-05	

The remaining compounds from weak to strong by IC50 (MCL-1), led by results:

IC50 (MCL-1) [µM]	EC50 (SUDHL10 [2]) [µM]	IC50 (SUDHL5 [3]) [M]	IC50 (SUDHL10 [4])	EC50 (SUDHL5 [5]) [µM]	IC50 (A2780) [M]	EC50 (SUDHL10 [2]; Homo sapiens, SU-DHL10, 3 h) [µM]	IC50 (SUDHL10 [4]; Homo sapiens, SU-DHL10, 72 h) [M]	IC50 (SUDHL5 [3]; Homo sapiens, SU-DHL-5, 72 h) [M]	EC50 (SUDHL5 [5]; Homo sapiens, SU-DHL-5, 3 h) [µM]	IC50 (A2780; Homo sapiens, A2780, 72 h) [M]	Compound	IC50 (OPM2) [M]	IC50 (SUDHL5 [1]; [7])	IC50 (SUDHL10 [6]; [8]) [M]	IC50 (SUDHL10 [6]; [9]) [M]	IC50 (OPM2; Homo sapiens, OPM-2, 72 h) [M]	IC50 (SUDHL5 [1]; [10]) [M]
0.0541	27.5	> 3.3e-05	2.02e-05 M	11.7	> 3.3e-05						CN1CCCn2c(C(=O)O)c(CCCOc3cccc4ccccc34)c3cccc(c32)-c2c(COc3ccc(N4CCOCC4)cc3)nn(C)c2C1 (single isomer, unassigned) [Example 1-89, (−)-7,9-dimethyl-11-{[4-(morpholin-4-yl)phenoxy]methyl}-1-[3-(naphthalen-1-yloxy)propyl]-4,5,6,7,8,9-hexahydropyrazolo[3′,4′:7,8][1,5]diazecino[9,10,1-hi]indole-2-carboxylic Acid]	> 3.3e-05	1.39e-05 M	1.14e-05			
0.00735						7.79	1.02e-05	3.92e-06	2.83	> 3.3e-05	COCc1nn(C)c2c1-c1cccc3c(CCCOc4cccc5ccccc45)c(C(=O)O)n(c13)CCCN(C)C2 (single isomer, unassigned; enantiomer 1) [Example 1-103, 11-(methoxymethyl)-7,9-dimethyl-1-[3-(1-naphthyloxy)propyl]-4,5,6,7,8,9-hexahydropyrazolo[3′,4′:7,8][1,5]diazecino[9,10,1-hi]indole-2-carboxylic Acid (Enantiomer 1)]				1.27e-05	1.58e-05	3.97e-06
0.00285	1.95	1.25e-06		1.63			2.19e-06			1.38e-05	CN(C)S(=O)(=O)N1CCN(c2ccc(OCc3nn(C)c4c3-c3cccc5c(CCCOc6cccc7ccccc67)c(C(=O)O)n(c35)CCCCOC4)cc2)CC1 (single isomer, unassigned; enantiomer 2) [Example 1-20, 3-({4-[4-(dimethylsulfamoyl)piperazin-1-yl]phenoxy}methyl)-1-methyl-7-[3-(naphthalen-1-yloxy)propyl]-1,10,11,12,13,15-hexahydropyrazolo[4′,3′:9,10][1,6]oxazacycloundecino[8,7,6-hi]indole-8-carboxylic Acid (Enantiomer 2)]		2.11e-06 M	3.06e-06		2.32e-06	
0.00268	13.4		6.45e-06 M	6.48				2.24e-06		> 3.3e-05	CCOCc1nn(C)c2c1-c1cccc3c(CCCOc4cccc5c4CCCC5)c(C(=O)O)n(c13)CCCCOC2 (single isomer, unassigned; enantiomer 1) [Example 171, 3-(ethoxymethyl)-1-methyl-7-[3-(5,6,7,8-tetrahydronaphthalen-1-yloxy)propyl]-1,10,11,12,13,15-hexahydropyrazolo[4′,3′:9,10][1,6]oxazacycloundecino[8,7,6-hi]indole-8-carboxylic Acid (Enantiomer 1)]	1.23e-05	5.08e-06 M	1.39e-05			
0.00156	6.64		2.44e-06 M	1.47				8.08e-07		2.48e-05	Cc1c2c(nn1CCN1CCOCC1)COCCCCn1c(C(=O)O)c(CCCOc3cccc4ccccc34)c3cccc-2c31 (single isomer, unassigned; enantiomer 1) [Example 054, 3-methyl-2-[2-(morpholin-4-yl)ethyl]-7-[3-(naphthalen-1-yloxy)propyl]-2,10,11,12,13,15-hexahydropyrazolo[4′,3′:9,10][1,6]oxazacycloundecino[8,7,6-hi]indole-8-carboxylic acid-N-ethylethanamine Salt (Enantiomer 1)]	7.46e-06	1.61e-06 M	4.68e-06			
